Laboratory results taken from patent US12025596B2, “6-oxo-pipecolic acid quantitation by mass spectrometry” (THE REGENTS OF THE UNIVERSITY OF COLORADO, priority 2018, dated 2024).
“And” between values parts separate entries of the source, which are not always exact repeats. Identical values can stand only once. “Also recorded” adds a separate entry of the source.

Assays:
[1] = 4-month biomarker stability study in urine samples; assay type: physicochemical, human; details: for concentration: PDE urine; for decrease at 126 days: room temperature
Excerpt: Liquid chromatography tandem mass spectrometry experiments: Lysine metabolites were first analyzed based on previously published liquid chromatography tandem mass spectrometry (LC-MS/MS) methods (Struys, Jakobs 2007, Molecular Genetics and Metabolism 91:405; Yuzyuk et al. 2016, J Chromatogr B Analyt Technol Biomed Life Sci, 1017-1018:145-52). As the goal of this study was to replicate current newborn screening modalities, we focused on a non-derivatized MS/MS analytical method (Nagy et al. 2003, Rapid Commun Mass Spectrom 17:983-90). Samples were analyzed via electrospray ionization in positive ion mode (ESI+) using an Applied Biosystems Sciex 4000 (Applied Biosystems) equipped with a Shimadzu HPLC (Shimadzu Scientific Instruments) and a Leap auto-sampler (LEAP Technologies). Methanol (MeOH):acetonitrile (ACN) 200 μL 1:1 mixture was added to 100 μL of plasma, blood, urine, CSF or standard materials. Plasma and blood samples were centrifuged at 10,000 rpm and the supernatants used. Urine and CSF samples required no additional processing. […] Samples were analyzed using the following conditions: i) ion-spray voltage of 5500 V; ii) temperature, 450° C.; iii) collision using nitrogen gas with curtain gas (CUR) set at 10 and collisionally activated dissociation (CAD) set at 12; iv) ion source gas one (GS1) and two (GS2) were set at 30; v) entrance potential was set at 10 V; vi) quadruple one (Q1) and (Q3) were set on unit resolution; vii) dwell time was set at 200 msec.
Biomarker stability studies: In a 4-month stability study, fresh urine samples (400 μL) from two subjects were aliquoted into 1.5 mL Eppendorf tubes and stored either at room temperature (22±2° C.), freezer (−13±3° C.) or deep freezer (−77±3° C.) and sampled over four-months.
(§1) As a primary aim of this research was to evaluate biomarkers suitable for newborn screening, we analyzed blood spots (Whatman 903 Lot W-041) from two subjects and controls. […] A freeze-thaw study and a 4-month stability study was done in urine samples from subjects 1 and 2 (Table 4).
(§2) To quantify 6-Oxo-PIP and Δ^1-P6C/P6CH, we prepared standard curves ranging from 0.5-500 μM from control urine (FIGS. 5 and 6). In a freeze-thaw study (6-Oxo-PIP, FIG. 6; and P6C/P6CH, FIG. 7) and a 4-month stability study (FIG. 8 and FIG. 9B), fresh urine samples (400 μL) were aliquoted into 1.5 mL Eppendorf tubes and stored either at room temperature (22±2° C.), regular freezer (−13±3° C.) or deep freezer (−77±3° C.) and sampled over a four-month period. First, both biomarkers Δ^1-P6C/P6CH and 6-Oxo-PIP were stable via four freeze-thaw cycles (6-Oxo-PIP FIG. 6; and Δ^1-P6C/P6CH FIG. 7). The initial 6-Oxo-PIP concentrations observed with patient one and patient two were 298±23 and 440±4 μM, respectively. […] The original concentrations of Δ^1-P6C/P6CH for patient one and two were 16.1±1.9 μM and 27.1±2.0 μM, respectively, an order of magnitude less than 6-oxo-PIP. […] Even after 126 days storage, roughly half of the Δ^1-P6C/P6CH from the original sample (day 1) remained.

[2] = Four freeze-thaw cycle stability in urine; assay type: physicochemical, human; details: urine from PDE patients
Experimental: as §1, §2

[3] = Blood spot stability at room temperature; assay type: physicochemical, human; details: blood spots (Whatman 903) stored at room temperature
Excerpt: as §1

[4] = Cytosolic, S9, mitochondrial and plasma metabolism of lysine metabolites; assay type: in vitro ADME, human
Experimental: Cytosolic and mitochondrial metabolism of lysine metabolites: Human liver cytosol 100 μL (10 mg/mL) or S9 fraction 100 μL (20 mg/mL) and 100 μL NAD+ (1.2 mM final) in 400 μL PBS pH 7.4 were preincubated at 37° C. for 5 min, followed by addition of 100 μL Δ1-P6C (100 μM); 100 μL samples were taken at 0.5, 5, 20 and 50 min, added to 300 μL 1:1 MeOH:ACN and analysed by LC-MS/MS. To probe potential phase II metabolism, 100 μL human liver microsomes (20 mg protein/mL) were similarly incubated with 4.0 mM UDPGA.
Human liver mitochondria were freshly prepared by homogenization of a human liver sample with a Teflon pestle in 5% weight to volume Zheng buffer (Zheng et al. 1990, Biochim Biophys Acta 1019:1-10), and after centrifugation at 5600 g for 5 min, the supernatant was transferred to a centrifuge tube; this procedure was repeated on the resuspended pellet a second time. Both supernatants were combined, centrifuged at 37,500 g for 5 min, the resulting pellet resuspended in Zheng buffer, homogenized and similarly pelleted again, and resuspended in 300 μL Zheng buffer to provide a mitochondrial preparation, with protein concentration determined using the Bio-Rad Protein Assay. To access the mitochondrial matrix, the homogenate was subjected to 3 freeze-thaw cycles, followed by 2×7 bursts of sonication on ice using a Branson 450 digital sonifier with a 2-inch cup horn at 30% amplitude. Of this mitochondrial preparation 100 μL was similarly incubated with Δ1-P6C and analyzed as above.
Albeit small, the formation of 6-oxo-PIP raises the possibility of a second pathway. […] Thus, this alternative mechanism to AAA is not a major pathway.

[5] = 4-month biomarker stability study in urine samples; assay type: physicochemical, human; details: PDE urine, −70° C.

O=C1CCC[C@@H](C(=O)O)N1 [6-oxo-PIP, (S)-6-oxopiperidine-2-carboxylic acid]
concentration ([1]; Room Temperature, Subject 1, day 0): 298 ± 23 µM and 297.0 µM | concentration ([1]; Room Temperature, Subject 1, day 0, listed as 6-Oxo-PIP): 298 ± 23 µM | concentration ([1]; Room Temperature, Subject 1, day 1): 294.8 µM | concentration ([1]; Room Temperature, Subject 1, day 2): 283.5 µM | concentration ([1]; Room Temperature, Subject 1, day 3): 30.1 µM | concentration ([1]; Room Temperature, Subject 1, day 5): 257.6 µM | concentration ([1]; Room Temperature, Subject 1, day 7): 252.1 µM | concentration ([1]; Room Temperature, Subject 1, day 10): 234.7 µM | concentration ([1]; Room Temperature, Subject 1, day 14): 233.0 µM | concentration ([1]; Room Temperature, Subject 1, day 21): 197.5 µM | concentration ([1]; Room Temperature, Subject 1, day 60): 182.0 µM | concentration ([1]; Room Temperature, Subject 1, day 126): 170.0 µM | concentration ([1]; Room Temperature, Subject 2, day 0): 440 ± 4 µM and 440.1 µM | concentration ([1]; Room Temperature, Subject 2, day 0, listed as 6-Oxo-PIP): 440 ± 4 µM | concentration ([1]; Room Temperature, Subject 2, day 1): 390.8 µM | concentration ([1]; Room Temperature, Subject 2, day 2): 418.2 µM | concentration ([1]; Room Temperature, Subject 2, day 3): 387.7 µM | concentration ([1]; Room Temperature, Subject 2, day 5): 383.9 µM | concentration ([1]; Room Temperature, Subject 2, day 7): 346.0 µM | concentration ([1]; Room Temperature, Subject 2, day 10): 345.2 µM | concentration ([1]; Room Temperature, Subject 2, day 14): 330.2 µM | concentration ([1]; Room Temperature, Subject 2, day 21): 322.6 µM | concentration ([1]; Room Temperature, Subject 2, day 60): 312.3 µM | concentration ([1]; Room Temperature, Subject 2, day 126): 295.3 µM | concentration ([1]; −15° C., Subject 1, day 0): 284.8 µM | concentration ([1]; −15° C., Subject 1, day 3): 243.1 µM | concentration ([1]; −15° C., Subject 1, day 7): 260.8 µM | concentration ([1]; −15° C., Subject 1, day 10): 285.1 µM | concentration ([1]; −15° C., Subject 1, day 14): 219.7 µM | concentration ([1]; −15° C., Subject 1, day 21): 227.7 µM | concentration ([1]; −15° C., Subject 1, day 60): 218.4 µM | concentration ([1]; −15° C., Subject 1, day 126): 211.5 µM | concentration ([1]; −15° C., Subject 2, day 0): 387.6 µM | concentration ([1]; −15° C., Subject 2, day 3): 359.0 µM | concentration ([1]; −15° C., Subject 2, day 7): 345.0 µM | concentration ([1]; −15° C., Subject 2, day 10): 336.5 µM | concentration ([1]; −15° C., Subject 2, day 14): 385.3 µM | concentration ([1]; −15° C., Subject 2, day 21): 345.2 µM | concentration ([1]; −15° C., Subject 2, day 60): 322.3 µM | concentration ([1]; −15° C., Subject 2, day 126): 314.3 µM | concentration ([1]; −70° C., Subject 1, day 0): 284.8 µM | concentration ([1]; −70° C., Subject 1, day 3): 298.2 µM | concentration ([1]; −70° C., Subject 1, day 7): 271.9 µM | concentration ([1]; −70° C., Subject 1, day 10): 221.7 µM | concentration ([1]; −70° C., Subject 1, day 14): 218.9 µM | concentration ([1]; −70° C., Subject 1, day 21): 217.4 µM | concentration ([1]; −70° C., Subject 1, day 60): 211.3 µM | concentration ([1]; −70° C., Subject 1, day 126): 198.4 µM | concentration ([1]; −70° C., Subject 2, day 3): 356.4 µM | concentration ([1]; −70° C., Subject 2, day 7): 329.2 µM | concentration ([1]; −70° C., Subject 2, day 10): 380.3 µM | concentration ([1]; −70° C., Subject 2, day 14): 418.3 µM | concentration ([1]; −70° C., Subject 2, day 21): 320.1 µM | concentration ([1]; −70° C., Subject 2, day 126): 322.7 µM | stability at room temperature ([1]; urine samples stored at room temperature (22±2° C.)): considerably more stable than Δ^1-P6C/P6CH; also recorded: measurable for up to four months | initial decrease within the first two weeks ([1]; urine, regardless of storage temperature): 20-21% | decrease at 126 days ([1]; urine, subject 1): 43% | decrease at 126 days ([1]; urine, subject 2): 33% | stability via four freeze-thaw cycles [2]: stable | signal in blood spots [3]: noted in the initial blood spot | conversion to AAA (hydrolytic ring opening) ([4]; incubation with human S9): none of these experiments showed a conversion | conversion to AAA (hydrolytic ring opening) ([4]; incubation with human cytosol): none of these experiments showed a conversion | conversion to AAA (hydrolytic ring opening) ([4]; incubation with human plasma (e.g. esterase activity)): none of these experiments showed a conversion | concentration ([5]; Subject 2, day 0): 387.6 µM | concentration ([5]; Subject 2, day 60): 340.7 µM
